Laboratory results published in patent US12714706B2, “Methods of treating small cell lung cancer with lurbinectedin formulations” (PHARMA MAR, S.A., priority 2019, dated 2026).

Columns and labels:
[1] = Phase 2 trial of lurbinectedin monotherapy: plasma pharmacokinetics; format: in vivo; details: human, intravenous, 3.2 mg/m^2 as 1-hour infusion
Method: The plasma PK of lurbinectedin was evaluated during Cycles 1 and 2 in all treated patients. The sampling schedule is shown in Table 15 and Table 16, respectively.
PK analysis of plasma-concentration-time data of lurbinectedin was performed using non-linear mixed-effects modeling and/or non-compartment analysis.

SCLC patients = assay: Phase 2 trial of lurbinectedin monotherapy in SCLC: safety evaluation (NCI-CTCAE v4); format: in vivo, human
Method: Patients were evaluated for safety if they had received any partial or complete infusion of lurbinectedin. All adverse events were graded according to the National Cancer Institute-Common Toxicity Criteria for Adverse Events (NCI-CTCAE, v4). The safety profile of patients was monitored throughout the treatment and up to 30 days after the last lurbinectedin infusion (end of treatment), or until the patient started a new anti-tumor therapy or until the date of death, whichever occurred first. Treatment delays, dose reduction requirements, transfusions, and reason for treatment discontinuation was monitored throughout the study. Any treatment-related adverse events were followed until recovery to at least grade 1 or stabilization of symptoms or until the start of a new anti-tumor therapy, whichever occurred first.

[2] = Maximum solubility of lurbinectedin in various buffers pH 4 (impact of buffer molarity)
Method: Bulk solutions of phosphate, acetate, citrate, lactate and succinate buffers were prepared to determine maximum solubility of lurbinectedin.

[3] = Lurbinectedin plus irinotecan trial: pharmacokinetics of lurbinectedin, irinotecan and SN-38; details: combination: lurbinectedin 1.0-2.4 mg/m2 + irinotecan 75 mg/m2; n=39; mean (SD)
SCLC = assay: Phase 2 trial of lurbinectedin monotherapy in SCLC: antitumor activity (ORR, DOR, PFS, OS; RECIST v1.1); format: in vivo, human
[4] = 105 SCLC patients, 3.2 mg/m^2 q3wk
[5] = biochemical abnormality regardless of relation to study drug, patients with laboratory data, NCI-CTCAE v4.0, SCLC
[6] = haematological abnormality regardless of relation to study drug, NCI-CTCAE v4.0, 105 treated SCLC patients
[7] = treatment-related adverse event, NCI-CTCAE v4.0, 105 treated SCLC patients
[8] = chemotherapy-free interval 90 days or longer (sensitive)

## COc1ccc2[nH]c3c(c2c1)CCN[C@]31CS[C@@H]2c3c(OC(C)=O)c(C)c4c(c3[C@H](COC1=O)N1[C@@H]2[C@H]2c3c(cc(C)c(OC)c3O)C[C@@H]([C@@H]1O)N2C)OCO4 [lurbinectedin, Lurbinectedin]
[1]
  AUC(0-inf): ~551 ng·h/mL
[1]; read-out: Mean total plasma Cmax
  Cmax: ~107 ng/mL
SCLC patients; 105 SCLC patients
  Patients with dose delays caused by neutropenia: 12%
  Patients with dose reductions caused by neutropenia: 16%
SCLC patients; [4]
  Patients with dose administration delayed because of treatment-related adverse events: 22%
  Patients with dose reduced because of treatment-related adverse events: 26%
SCLC patients; 105 treated patients
  Discontinuation because of treatment-related adverse events: 2%
  Drug-induced liver injury: no cases
  Grade 3-4 anemia: 9%
  Grade 3-4 febrile neutropenia: 5%
  Grade 3-4 leukopenia: 29%
  Grade 3-4 neutropenia: 46%
  Grade 3-4 thrombocytopenia: 7%
  Grade 3 pneumonia: 2%
  Patients who received G-CSF secondary prophylaxis or therapy for neutropenia: 22%
  Serious treatment-related adverse events: 10%
  Serious treatment-related febrile neutropenia: 5%
  Serious treatment-related neutropenia: 5%
  Treatment-related deaths: No treatment-related deaths
SCLC patients; [5]
  Alanine aminotransferase, Grade 4: 0 n (%) of patients
  Alkaline phosphatase, Grade 4: 0 n (%) of patients
  Aspartate aminotransferase, Grade 4: 0 n (%) of patients
  Creatinine, Grade 3: 0 n (%) of patients
  Creatinine, Grade 4: 0 n (%) of patients
SCLC patients; [6]
  Anaemia, Grade 1-2: 91 (87%) n (%) of patients
  Anaemia, Grade 3: 9 (9%) n (%) of patients
  Anaemia, Grade 4: 0 n (%) of patients
  Leucopenia, Grade 1-2: 53 (50%) n (%) of patients
  Leucopenia, Grade 3: 20 (19%) n (%) of patients
  Leucopenia, Grade 4: 10 (10%) n (%) of patients
  Neutropenia, Grade 1-2: 27 (26%) n (%) of patients
  Neutropenia, Grade 3: 22 (21%) n (%) of patients
  Neutropenia, Grade 4: 26 (25%) n (%) of patients
  Thrombocytopenia, Grade 1-2: 39 (37%) n (%) of patients
  Thrombocytopenia, Grade 3: 3 (3%) n (%) of patients
  Thrombocytopenia, Grade 4: 4 (4%) n (%) of patients
SCLC patients; [7]
  Decreased appetite, Grade 1-2: 22 (21%) n (%) of patients
  Decreased appetite, Grade 3: 0 n (%) of patients
  Decreased appetite, Grade 4: 0 n (%) of patients
  Diarrhoea, Grade 1-2: 13 (14%) n (%) of patients
  Diarrhoea, Grade 3: 1 (1%) n (%) of patients
  Diarrhoea, Grade 4: 0 n (%) of patients
  Fatigue, Grade 1-2: 54 (51%) n (%) of patients
  Fatigue, Grade 3: 7 (7%) n (%) of patients
  Fatigue, Grade 4: 0 n (%) of patients
  Febrile neutropenia, Grade 1-2: 0 n (%) of patients
  Febrile neutropenia, Grade 3: 2 (2%) n (%) of patients
  Febrile neutropenia, Grade 4: 3 (3%) n (%) of patients
  Nausea, Grade 1-2: 34 (32%) n (%) of patients
  Nausea, Grade 3: 0 n (%) of patients
  Nausea, Grade 4: 0 n (%) of patients
  Pneumonia, Grade 1-2: 0 n (%) of patients
  Pneumonia, Grade 3: 2 (2%) n (%) of patients
  Pneumonia, Grade 4: 0 n (%) of patients
  Skin ulcer, Grade 1-2: 0 n (%) of patients
  Skin ulcer, Grade 3: 1 (1%) n (%) of patients
  Skin ulcer, Grade 4: 0 n (%) of patients
  Vomiting, Grade 1-2: 19 (18%) n (%) of patients
  Vomiting, Grade 3: 0 n (%) of patients
  Vomiting, Grade 4: 0 n (%) of patients
[2]; Monopotassium phosphate buffer pH 4, 0.06-01 M
  Lurbinectedin maximum solubility: 0.32 mg/mL
[2]; Sodium acetate buffer pH 4, 0.06-01 M
  Lurbinectedin maximum solubility: 0.86 mg/mL
[2]; Sodium lactate buffer pH 4, 0.06-01 M
  Lurbinectedin maximum solubility: 0.92 mg/mL
[3]
  HL: 44.2 (22.4) h
SCLC; IRC assessment, overall (n = 105)
  Overall response rate (CR + PR): 30.5%
SCLC; IRC assessment, resistant disease (CTFI <90 days)
  Duration of response, median: 4.8 months
SCLC; IRC assessment, resistant disease (CTFI <90 days, n = 45)
  Overall response rate (CR + PR): 13.3%
SCLC; IRC assessment, sensitive disease (CTFI ≥90 days)
  Duration of response, median: 5.3 months
SCLC; IRC assessment, sensitive disease (CTFI ≥90 days, n = 60)
  Overall response rate (CR + PR): 43.3%
SCLC; Investigator assessment, overall
  Duration of response, median: 5.3 months
SCLC; Investigator assessment, resistant disease (CTFI <90 days)
  Duration of response, median: 4.7 months
SCLC; Investigator assessment, sensitive disease (CTFI ≥90 days)
  Duration of response, median: 6.2 months
SCLC; Investigator assessment, sensitive disease (CTFI ≥90 days, n = 60)
  Overall response rate (CR + PR): 45.0%
SCLC; Investigator-assessed, overall population
  Median progression-free survival: 3.5 months
SCLC; chemotherapy-free interval 90 days or longer (n = 60)
  Patients alive at 1 year after the first dose: 48%
SCLC; [8]
  Median overall survival: 11.9 months
  Median progression-free survival: 4.6 months
SCLC; overall population
  Median overall survival: 9.3 months
SCLC; responders with sensitive disease
  Median overall survival of patients with initial objective response (post-hoc): 15.8 months
